The values that follow come from paper PMC5218480 (PLoS ONE, 2017).

This experiment has as its system MV-4-11 cells. The experiment in a line: Gene expression microarray analysis (Affymetrix PrimeView) and GSEA. In kind it is cell-based, human. The arrangement: RFU PODN (11730768_x_at) / Fold change /veh PODN (11730768_x_at) / RFU LINC00158 (11744669_a_at) / Fold change /veh LINC00158 (11744669_a_at) / RFU DUSP10 (11751237_a_at) / Fold change /veh DUSP10 (11751237_a_at) / RFU ID3 (11757404_x_at) / Fold change /veh ID3 (11757404_x_at) / RFU PLEKHG5 (11737974_s_at) / Fold change /veh PLEKHG5 (11737974_s_at) / RFU LRRC4B (11730491_at) / Fold change /veh LRRC4B (11730491_at) / RFU GIMAP4 (11747438_a_at) / Fold change /veh GIMAP4 (11747438_a_at) / RFU KRT8 (11758183_x_at) / Fold change /veh KRT8 (11758183_x_at) / RFU CNN1 (11734310_a_at) / Fold change /veh CNN1 (11734310_a_at) / RFU VPS37D (11726825_at) / Fold change /veh VPS37D (11726825_at) / RFU C10orf10 (11716522_x_at) / Fold change /veh C10orf10 (11716522_x_at) / RFU KIR2DL2 /// KIR2DL4 /// KIR2DL5A /// KIR2DL5B /// KIR2DS1 /// KIR2DS2 /// KIR2DS3 /// KIR2DS4 /// KIR3DL3 /// KIR3DL3 /// KIR3DS1 (11738374_at) / Fold change /veh KIR2DL2 /// KIR2DL4 /// KIR2DL5A /// KIR2DL5B /// KIR2DS1 /// KIR2DS2 /// KIR2DS3 /// KIR2DS4 /// KIR3DL3 /// KIR3DL3 /// KIR3DS1 (11738374_at) / RFU C1QL1 (11718748_at) / Fold change /veh C1QL1 (11718748_at) / RFU TMPRSS4 (11747572_a_at) / Fold change /veh TMPRSS4 (11747572_a_at) / RFU HAMP (11756126_x_at) / Fold change /veh HAMP (11756126_x_at) / RFU RNFT2 (11725882_a_at) / Fold change /veh RNFT2 (11725882_a_at) / RFU NR4A2 (11747474_a_at) / Fold change /veh NR4A2 (11747474_a_at) / RFU ABCC12 (11746883_a_at) / Fold change /veh ABCC12 (11746883_a_at) / RFU TMEM136 (11760407_x_at) / Fold change /veh TMEM136 (11760407_x_at) / RFU CLDN22 /// WWC2 (11732394_at) / Fold change /veh CLDN22 /// WWC2 (11732394_at) / RFU HLA-DPB1 (11760878_x_at) / Fold change /veh HLA-DPB1 (11760878_x_at) / RFU SPINT1 (11716480_a_at) / Fold change /veh SPINT1 (11716480_a_at) / RFU GAP43 (11754022_s_at) / Fold change /veh GAP43 (11754022_s_at) / RFU A4GNT (11735810_at) / Fold change /veh A4GNT (11735810_at) / RFU PRB3 (11715151_x_at) / Fold change /veh PRB3 (11715151_x_at) / RFU TUBB4B (11761932_at) / Fold change /veh TUBB4B (11761932_at) / RFU CAPN14 (11732068_a_at) / Fold change /veh CAPN14 (11732068_a_at) / RFU TMCC2 (11721928_a_at) / Fold change /veh TMCC2 (11721928_a_at) / RFU IRGQ (11745062_a_at) / Fold change /veh IRGQ (11745062_a_at) / RFU FAM174B (11720279_a_at) / Fold change /veh FAM174B (11720279_a_at) / RFU TMPRSS4 (11748680_a_at) / Fold change /veh TMPRSS4 (11748680_a_at) / RFU FAM212B (11763350_a_at) / Fold change /veh FAM212B (11763350_a_at) / RFU PLEKHG5 (11743358_a_at) / Fold change /veh PLEKHG5 (11743358_a_at) / RFU ZSCAN30 (11745921_a_at) / Fold change /veh ZSCAN30 (11745921_a_at) / RFU CMKLR1 (11741424_a_at) / Fold change /veh CMKLR1 (11741424_a_at) / RFU LOC101060620 /// MAPK8IP1 (11723275_at) / Fold change /veh LOC101060620 /// MAPK8IP1 (11723275_at) / RFU SPTSSB (11747773_x_at) / Fold change /veh SPTSSB (11747773_x_at) / RFU PRSS12 (11739890_at) / Fold change /veh PRSS12 (11739890_at) / RFU BIN1 (11741810_x_at) / Fold change /veh BIN1 (11741810_x_at) / RFU WNT11 (11732464_a_at) / Fold change /veh WNT11 (11732464_a_at) / RFU C10orf10 (11716521_a_at) / Fold change /veh C10orf10 (11716521_a_at) / RFU C5orf56 (11738089_at) / Fold change /veh C5orf56 (11738089_at) / RFU CYB561 (11721691_x_at) / Fold change /veh CYB561 (11721691_x_at) / RFU ANKRD19P (11752326_a_at) / Fold change /veh ANKRD19P (11752326_a_at) / RFU OR2T12 /// OR2T33 /// OR2T8 (11738714_s_at) / Fold change /veh OR2T12 /// OR2T33 /// OR2T8 (11738714_s_at) / RFU VCAN (11748164_a_at) / Fold change /veh VCAN (11748164_a_at) / RFU JSRP1 (11732532_at) / Fold change /veh JSRP1 (11732532_at) / RFU KRTAP10-11 (11738290_x_at) / Fold change /veh KRTAP10-11 (11738290_x_at) / RFU MYO3A (11730013_a_at) / Fold change /veh MYO3A (11730013_a_at) / RFU EBF3 (11725865_a_at) / Fold change /veh EBF3 (11725865_a_at) / RFU CAMK2N1 (11719241_x_at) / Fold change /veh CAMK2N1 (11719241_x_at) / RFU C5orf56 (11738088_a_at) / Fold change /veh C5orf56 (11738088_a_at) / RFU OLFML3 (11715873_a_at) / Fold change /veh OLFML3 (11715873_a_at) / RFU LOC100653217 /// NTM (11731650_a_at) / Fold change /veh LOC100653217 /// NTM (11731650_a_at) / RFU MAPK11 (11762145_a_at) / Fold change /veh MAPK11 (11762145_a_at) / RFU FIZ1 (11724087_x_at) / Fold change /veh FIZ1 (11724087_x_at) / RFU OASL (11726364_x_at) / Fold change /veh OASL (11726364_x_at) / RFU SOX15 (11748057_x_at) / Fold change /veh SOX15 (11748057_x_at) / RFU CD79A (11719716_a_at) / Fold change /veh CD79A (11719716_a_at) / RFU HIST1H1D (11736915_at) / Fold change /veh HIST1H1D (11736915_at) / RFU CASKIN2 (11723855_a_at) / Fold change /veh CASKIN2 (11723855_a_at) / RFU LOC730098 (11760151_x_at) / Fold change /veh LOC730098 (11760151_x_at) / RFU OR4N2 (11742367_at) / Fold change /veh OR4N2 (11742367_at) / RFU PRRT2 (11749266_a_at) / Fold change /veh PRRT2 (11749266_a_at) / RFU SNX32 (11753110_a_at) / Fold change /veh SNX32 (11753110_a_at) / RFU CDHR5 (11726645_a_at) / Fold change /veh CDHR5 (11726645_a_at) / RFU RCAN1 (11760418_a_at) / Fold change /veh RCAN1 (11760418_a_at) / RFU FAM167A (11723789_a_at) / Fold change /veh FAM167A (11723789_a_at) / RFU FAM26E (11764081_at) / Fold change /veh FAM26E (11764081_at) / RFU ISYNA1 (11749810_s_at) / Fold change /veh ISYNA1 (11749810_s_at) / RFU ACY1 (11761880_at) / Fold change /veh ACY1 (11761880_at) / RFU 11764098_at / Fold change /veh 11764098_at / RFU SAMD14 (11745864_x_at) / Fold change /veh SAMD14 (11745864_x_at) / RFU NPB (11741838_a_at) / Fold change /veh NPB (11741838_a_at) / RFU TMPRSS6 (11731388_a_at) / Fold change /veh TMPRSS6 (11731388_a_at) / RFU KRTAP10-2 (11738614_at) / Fold change /veh KRTAP10-2 (11738614_at) / RFU ARHGAP8 /// PRR5-ARHGAP8 (11727945_x_at) / Fold change /veh ARHGAP8 /// PRR5-ARHGAP8 (11727945_x_at) / RFU KRTAP5-7 /// NADSYN1 (11734609_at) / Fold change /veh KRTAP5-7 /// NADSYN1 (11734609_at) / RFU RASL12 (11751679_a_at) / Fold change /veh RASL12 (11751679_a_at) / RFU CDKN2B (11736163_a_at) / Fold change /veh CDKN2B (11736163_a_at) / RFU PRF1 (11729649_at) / Fold change /veh PRF1 (11729649_at) / RFU, ZNF638 /// ZNF638-IT1 / Fold change vs veh, ZNF638 /// ZNF638-IT1 / RFU, PANK3 / Fold change vs veh, PANK3 / RFU, SH3YL1 / Fold change vs veh, SH3YL1 / RFU, ZEB2 / Fold change vs veh, ZEB2 / RFU, NRIP1 / Fold change vs veh, NRIP1 / RFU, PTTG1IP / Fold change vs veh, PTTG1IP / RFU, CAPN2 / Fold change vs veh, CAPN2 / RFU, MED14 / Fold change vs veh, MED14 / RFU, SNORA58 / Fold change vs veh, SNORA58 / RFU, C1orf63 / Fold change vs veh, C1orf63 / RFU, LRRFIP1 / Fold change vs veh, LRRFIP1 / RFU, NDUFAF7 / Fold change vs veh, NDUFAF7 / RFU, SLC12A2 / Fold change vs veh, SLC12A2 / RFU, IBTK / Fold change vs veh, IBTK / RFU, ESF1 / Fold change vs veh, ESF1 / Fold change vs veh, TMEM50B / RFU, TAOK1 / Fold change vs veh, TAOK1 / RFU, ACBD3 / Fold change vs veh, ACBD3 / RFU, TMA16 / Fold change vs veh, TMA16 / RFU, RWDD3 / Fold change vs veh, RWDD3 / RFU, BCAT1 / Fold change vs veh, BCAT1 / RFU, EDEM3 / Fold change vs veh, EDEM3 / RFU, TMEM33 / Fold change vs veh, TMEM33 / RFU, WDR75 / Fold change vs veh, WDR75 / RFU, AHCTF1 / Fold change vs veh, AHCTF1 / RFU, TFRC / Fold change vs veh, TFRC / RFU, ZDHHC17 / Fold change vs veh, ZDHHC17 / RFU, NOM1 / Fold change vs veh, NOM1 / RFU, ARL8B / Fold change vs veh, ARL8B / RFU, ZBTB11 / Fold change vs veh, ZBTB11 / RFU, TAMM41 / Fold change vs veh, TAMM41 / RFU, KIAA1704 /// LOC100996395 / Fold change vs veh, KIAA1704 /// LOC100996395 / RFU, ING1 / Fold change vs veh, ING1 / RFU, TRMT61B / Fold change vs veh, TRMT61B / RFU, FUBP3 / Fold change vs veh, FUBP3 / RFU, TP53 / Fold change vs veh, TP53 / RFU, TNKS2 / Fold change vs veh, TNKS2 / RFU, ZFP14 / Fold change vs veh, ZFP14 / RFU, ACTR2 / Fold change vs veh, ACTR2 / RFU, PPP3R1 / Fold change vs veh, PPP3R1 / RFU, PIK3R1 / Fold change vs veh, PIK3R1 / RFU, HNRNPA1 / Fold change vs veh, HNRNPA1 / RFU, RNF170 / Fold change vs veh, RNF170 / RFU, ZNF28 / Fold change vs veh, ZNF28 / RFU, RNGTT / Fold change vs veh, RNGTT / RFU, OGT / Fold change vs veh, OGT / RFU, BRD1 / Fold change vs veh, BRD1 / RFU, MARS / Fold change vs veh, MARS / RFU, ZNF655 / Fold change vs veh, ZNF655 / RFU, FAHD1 / Fold change vs veh, FAHD1 / RFU, BDP1 / Fold change vs veh, BDP1 / RFU, LRRCC1 / Fold change vs veh, LRRCC1 / RFU, ARID1A / Fold change vs veh, ARID1A / RFU, ZNF146 / Fold change vs veh, ZNF146 / RFU, ZNF330 / Fold change vs veh, ZNF330 / RFU, GPN3 / Fold change vs veh, GPN3 / RFU, C9orf123 / Fold change vs veh, C9orf123 / RFU, N4BP2L2 / Fold change vs veh, N4BP2L2 / RFU, ARFIP1 / Fold change vs veh, ARFIP1 / RFU, FAM179B / Fold change vs veh, FAM179B / RFU, BCL10 / Fold change vs veh, BCL10 / RFU, UHRF1BP1L / Fold change vs veh, UHRF1BP1L / RFU, BET1 / Fold change vs veh, BET1 / RFU, CNOT2 / Fold change vs veh, CNOT2 / RFU, ZNF268 / Fold change vs veh, ZNF268 / Fold change vs veh, ZNF507 / RFU, DGCR2 / Fold change vs veh, DGCR2 / RFU, WDSUB1 / Fold change vs veh, WDSUB1 / Fold change vs veh, HSP90B1 /// MIR3652 / RFU, ADSS / Fold change vs veh, ADSS / RFU, GK / Fold change vs veh, GK / RFU, ZNF148 / Fold change vs veh, ZNF148 / RFU, TAF9 / Fold change vs veh, TAF9 / RFU, SLC1A5 / Fold change vs veh, SLC1A5 / RFU, SLMO2 / Fold change vs veh, SLMO2 / RFU, ABCC4 / Fold change vs veh, ABCC4 / RFU, LOC101060439 /// RAP1B / Fold change vs veh, LOC101060439 /// RAP1B / RFU, RFX7 / Fold change vs veh, RFX7 / RFU, GTPBP10 / Fold change vs veh, GTPBP10 / RFU, CNEP1R1 / Fold change vs veh, CNEP1R1 / RFU, BIVM-ERCC5 /// ERCC5 / Fold change vs veh, BIVM-ERCC5 /// ERCC5 / RFU, ILF3 / Fold change vs veh, ILF3 / RFU 11762660_at / Fold change /veh 11762660_at / RFU VCAN (11757783_s_at) / Fold change /veh VCAN (11757783_s_at) / RFU DDX43 (11728927_at) / Fold change /veh DDX43 (11728927_at) / RFU KRT8 (11758188_x_at) / Fold change /veh KRT8 (11758188_x_at) / RFU NKD1 (11759106_at) / Fold change /veh NKD1 (11759106_at) / RFU SRD5A1 (11742802_a_at) / Fold change /veh SRD5A1 (11742802_a_at) / RFU TPSAB1 /// TPSB2 (11721975_s_at) / Fold change /veh TPSAB1 /// TPSB2 (11721975_s_at) / RFU GSTM3 (11746129_a_at) / Fold change /veh GSTM3 (11746129_a_at) / RFU IL23R (11737362_x_at) / Fold change /veh IL23R (11737362_x_at) / RFU TMEM51 (11727254_a_at) / Fold change /veh TMEM51 (11727254_a_at) / RFU PIWIL2 (11732686_x_at) / Fold change /veh PIWIL2 (11732686_x_at) / RFU ORM1 (11744905_x_at) / Fold change /veh ORM1 (11744905_x_at) / RFU CCDC152 (11743942_at) / Fold change /veh CCDC152 (11743942_at) / RFU ECM1 (11717891_a_at) / Fold change /veh ECM1 (11717891_a_at) / RFU IL23R (11748794_a_at) / Fold change /veh IL23R (11748794_a_at) / RFU TNFAIP8L3 (11732012_x_at) / Fold change /veh TNFAIP8L3 (11732012_x_at) / RFU MBOAT4 (11741988_at) / Fold change /veh MBOAT4 (11741988_at) / RFU 11764193_at / Fold change /veh 11764193_at / RFU TMEM53 (11763286_at) / Fold change /veh TMEM53 (11763286_at) / RFU MAGEB2 (11727129_at) / Fold change /veh MAGEB2 (11727129_at) / RFU TMEM200A (11744735_a_at) / Fold change /veh TMEM200A (11744735_a_at) / RFU CCDC152 (11751479_a_at) / Fold change /veh CCDC152 (11751479_a_at) / RFU FAM211A (11726209_a_at) / Fold change /veh FAM211A (11726209_a_at) / RFU RGS16 (11746705_a_at) / Fold change /veh RGS16 (11746705_a_at) / RFU VCAN (11755009_s_at) / Fold change /veh VCAN (11755009_s_at) / RFU RHOB (11743442_s_at) / Fold change /veh RHOB (11743442_s_at) / RFU RGS16 (11720943_a_at) / Fold change /veh RGS16 (11720943_a_at) / RFU RGS16 (11720944_at) / Fold change /veh RGS16 (11720944_at) / RFU, VPS4B / Fold change vs veh, VPS4B / RFU, CREB1 / Fold change vs veh, CREB1 / RFU, DNAJC13 / Fold change vs veh, DNAJC13 / RFU, GNAQ / Fold change vs veh, GNAQ / RFU, CDK5R1 / Fold change vs veh, CDK5R1 / RFU, ZRANB3 / Fold change vs veh, ZRANB3 / RFU, CUL4A / Fold change vs veh, CUL4A / RFU, CCNY / Fold change vs veh, CCNY / RFU, UFL1 / Fold change vs veh, UFL1 / RFU, COG3 / Fold change vs veh, COG3 / RFU, DIAPH2 / Fold change vs veh, DIAPH2 / RFU, SKA2 / Fold change vs veh, SKA2 / RFU, AFF3 / Fold change vs veh, AFF3 / RFU, LMF1 / Fold change vs veh, LMF1 / RFU, IPO11 / Fold change vs veh, IPO11 / RFU, DFFB / Fold change vs veh, DFFB / RFU, FOXP1 / Fold change vs veh, FOXP1 / RFU, CARD8 / Fold change vs veh, CARD8 / RFU, STRN3 / Fold change vs veh, STRN3 / RFU, ADK / Fold change vs veh, ADK / RFU, RASSF2 / Fold change vs veh, RASSF2 / RFU, WIPF1 / Fold change vs veh, WIPF1 / RFU, LARP1B / Fold change vs veh, LARP1B / RFU, RASA1 / Fold change vs veh, RASA1 / RFU, RB1 / Fold change vs veh, RB1 / RFU, PPFIA1 / Fold change vs veh, PPFIA1 / RFU, MAT2A / Fold change vs veh, MAT2A / RFU, CCT5 / Fold change vs veh, CCT5 / RFU, WDR92 / Fold change vs veh, WDR92 / RFU, CUX1 / Fold change vs veh, CUX1 / RFU, TTC7A / Fold change vs veh, TTC7A / RFU, TMEM135 / Fold change vs veh, TMEM135 / RFU, DEPTOR / Fold change vs veh, DEPTOR / RFU, CPM / Fold change vs veh, CPM / RFU, DNAJB6 / Fold change vs veh, DNAJB6 / RFU, CACNA2D3 / Fold change vs veh, CACNA2D3 / RFU, DTX4 / Fold change vs veh, DTX4 / RFU, TFCP2 / Fold change vs veh, TFCP2 / RFU, GMCL1 /// GMCL1P1 / Fold change vs veh, GMCL1 /// GMCL1P1 / RFU, AEBP2 / Fold change vs veh, AEBP2 / RFU, SNHG1 /// SNORD22 /// SNORD25 /// SNORD26 /// SNORD27 /// SNORD28 /// SNORD29 /// SNORD31 / Fold change vs veh, SNHG1 /// SNORD22 /// SNORD25 /// SNORD26 /// SNORD27 /// SNORD28 /// SNORD29 /// SNORD31 / Fold change (Aza/veh), C12orf56 (ProbeSet 11735607_a_at) / Fold change (ACY-1035/veh), C12orf56 (ProbeSet 11735607_a_at) / Fold change (Aza/veh), FGFR1OP (ProbeSet 11751329_s_at) / Fold change (ACY-1035/veh), FGFR1OP (ProbeSet 11751329_s_at) / Fold change (Aza/veh), VPS36 (ProbeSet 11739960_a_at) / Fold change (ACY-1035/veh), VPS36 (ProbeSet 11739960_a_at) / RFU SYPL1 (11715823_x_at) / Fold change /veh SYPL1 (11715823_x_at) / RFU IGFBP7 (11715501_s_at) / Fold change /veh IGFBP7 (11715501_s_at) / RFU REEP3 (11722064_at) / Fold change /veh REEP3 (11722064_at) / RFU IGLL1 (11728026_x_at) / Fold change /veh IGLL1 (11728026_x_at): dose or concentration left out as unconfirmed. As to conditions: MV-4-11 cells, 48 hours.

Structures are written as SMILES.

Consider `Nc1ccc(-c2cccs2)cc1NC(=O)c1ccc2c(c1)cc(C1CC1)n2CCN1CCOCC1` [ACY-1035], for which the “RFU ID3 (11757404_x_at)” value is on record as 47.18 RFU.
